{"source": "patent US20240141060A1", "about": "“DOSAGE REGIMES FOR ANTI-CD73 AND ANTI-ENTPD2 ANTIBODIES AND USES THEREOF” (NOVARTIS AG, priority 2021, published 2024)", "origin": "cited, not measured here", "settings": "patients; cited from earlier work", "data": [{"compound": "Nc1nc(-n2cccn2)nc(-n2cccn2)c1Br", "note": "[NIR178, 5-bromo-2,6-di-(1H-pyrazol-1-yl)pyrimidine-4-amine, reference compound]", "values": [{"measurement": "MTD", "value": 480, "unit": "mg BID"}]}]}
